Experimental data reported in article PMC10341573, “Design, Synthesis, and Biological Evaluation of Novel Quinazolin-4(3H)-One-Based Histone Deacetylase 6 (HDAC6) Inhibitors for Anticancer Activity” (International Journal of Molecular Sciences, 2023).
Read-outs that look alike come from different tables or passages of the source.

Legend:
[1] = tested on: HCT116; assay: MTT cell proliferation assay, HCT116; assay type: cell-based, human; conditions: Homo sapiens, HCT-116; MTT, 72 h; mean ± SD, triplicate; read-out: IC50 ± SD HCT116
[2] = tested on: cleaved PARP; assay: Western blot of cleaved PARP; assay type: cell-based, human; conditions: MCF7 and HCT-116 cells, compared to untreated cells
From the text: (§1) The control had intact nuclei, as depicted by the green fluorescence due to AO binding to dsDNA, in contrast to the apoptotic nuclei of 5c-treated cells depicted by orange fluorescence due to AO staining of ssDNA and RNA. This observation was supported by the protein expression of cleaved poly (ADP-ribose) polymerase (PARP), which represents the degree of apoptosis in cells, as shown in Figure 9B. […] Acridine orange (AO) staining can also be influenced by autophagosomal pH.
(§2) On the basis of the results obtained from the cell proliferation assay, further experiments were conducted on MCF7 and HCT-116 cells treated with compound 5c. The cells were harvested, and 0.1 × 10^6 cells were seeded in a 12-well cell culture plate and allowed to adhere properly. The cells were then incubated with 0.1 μM and 1 μM concentrations of compound 5c for 24 h. Cells were pelleted in 1× PBS and lysed using ice-cold RIPA buffer. The protein concentration of the lysate was quantified using the Bradford assay and an equal concentration of sample proteins was run on 12% SDS-PAGE and transferred onto 0.45 μm PVDF membrane (Millipore (St. Louis, MO, USA), Immobilon IPVH00010). […]

[3] = tested on: acetyl-H3; assay: Western blot of acetyl-H3 in MCF7 and HCT-116 cells; assay type: cell-based, human; conditions: compared to untreated control
[4] = tested on: B16; assay: MTT cell proliferation assay, B16; assay type: cell-based, murine; conditions: Mus musculus, B16; MTT, 72 h; mean ± SD, triplicate; read-out: IC50 ± SD B16
[5] = tested on: acetyl α-tubulin; assay: Western blot of acetyl α-tubulin in MCF7 and HCT-116 cells; assay type: cell-based, human; conditions: 24 h
Procedure: HDAC6 plays a crucial role in chromatin modulation and deacetylation of α-tubulin, contributing to the expression of oncogenes driving tumorigenesis. Over time, numerous studies have shown HDAC inhibitors (HDACi) as potential anticancer therapeutics. The HDAC6-inhibitory effect of compound 5c was evaluated by analyzing the protein level expression of acetyl α-tubulin in MCF7 and HCT-116 cells treated with 5c by Western blotting.
as §2

[6] = tested on: MCF7 cells; assay: Cell-cycle analysis by flow cytometry; assay type: cell-based, human
Procedure: Cell-cycle distribution analysis was carried out further to evaluate the effect of 5c on HDAC inhibition, as HDCA inhibitors are mainly known to target genes regulating the cell cycle. The 5c-treated MCF7 cells were subjected to cell-cycle analysis by flow cytometry.
Cell-cycle analysis was carried out using a cell-cycle analysis kit (Sigma-Aldrich, MAK344) according to the protocol given by the manufacturer. MCF7 cells were treated with DMSO or 0.1 μM and 1 μM concentrations of compound 5c and incubated for 48 h. Cells were then trypsinized and pelleted down. The pellets were washed with 1× cell-cycle buffer and fixed in ice-cold 70% ethanol for 1 h at 4 °C. The fixated cells were treated with ribonuclease A (RNase A) and stained with PI at room temperature for 30 min. Analysis was carried out using FlowJo 10.7.2..

[7] = tested on: HEK 293; assay: MTT cell proliferation assay, HEK 293; assay type: cell-based, human; conditions: Homo sapiens, HEK293; MTT, 72 h; mean ± SD, triplicate; read-out: IC50 ± SD HEK 293
[8] = tested on: MCF7; assay: MTT cell proliferation assay, MCF7; assay type: cell-based, human; conditions: MTT, 72 h, mean ± SD, triplicate, read-out: IC50 ± SD MCF7
[9] = tested on: MCF7 cells; assay: Annexin V–FITC/PI apoptosis assay by flow cytometry; assay type: cell-based, human; conditions: MCF7, 0.1 and 1 μM, 24 h
Procedure: The efficacy of compound 5c to induce apoptosis was determined by annexin V–FITC/PI assay using flow cytometry. MCF7 cells were treated with two different concentrations of 5c as indicated, and the percentages of cells in the apoptotic and necrotic stage were analyzed, as depicted in Figure 8.
The apoptosis assay was performed using an annexin V–FITC Apoptosis detection kit (Sigma-Aldrich, APOAF) according to the manufacturer’s instructions. Cells were harvested, and 0.1 × 10^6 cells were seeded in a six-well cell culture plate and allowed to adhere followed by treatment with DMSO as the control and compound 5c at 0.1 μM and 1 μM concentrations for 24 h. The cells were trypsinized, pelleted down, and resuspended in the 1× buffer provided. The cells were stained using annexin V–FITC/PI and analyzed immediately using flow cytometry. Further analysis and plotting of graphs were conducted using Flowjo 7.6 [53].

[10] = target: T1, HDAC8 (Homo sapiens, UniProt Q9BY41); assay: HDAC enzyme activity assay (fluorogenic, Boc-Lys(trifluoroacetyl)-AMC), HDAC8; assay type: biochemical; conditions: class I HDAC8; mean ± SD, triplicate
T1 construct: codon-optimized full-length HDAC8; made in house; host or cells: E. coli BL21(DE3), pET14b vector
T1 sequence (Q9BY41 1-377): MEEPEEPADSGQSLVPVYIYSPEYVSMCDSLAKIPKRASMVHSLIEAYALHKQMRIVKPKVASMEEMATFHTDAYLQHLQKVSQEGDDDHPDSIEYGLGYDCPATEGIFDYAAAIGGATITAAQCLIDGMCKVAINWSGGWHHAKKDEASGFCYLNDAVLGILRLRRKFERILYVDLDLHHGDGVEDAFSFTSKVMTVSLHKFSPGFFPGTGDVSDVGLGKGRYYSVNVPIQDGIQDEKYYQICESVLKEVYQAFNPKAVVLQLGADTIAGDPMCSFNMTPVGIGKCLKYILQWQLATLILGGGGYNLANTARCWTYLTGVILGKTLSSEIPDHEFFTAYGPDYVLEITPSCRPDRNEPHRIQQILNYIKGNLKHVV

[11] = tested on: MCF7 and HCT-116 cells; assay: Acridine orange staining and fluorescence imaging; assay type: cell-based, human; conditions: 48 h
From the text: as §1

IC50 [1]: 12.4 ± 1.41 µM | IC50 [4]: 15 ± 3.34 µM | IC50 ([8]; Homo sapiens, MCF7, 72 h): 13.7 µM | IC50 [8]: 13.7 ± 0.83 µM | IC50 [10]: 2.3 ± 0.5 µM
Compound: Cc1ccc(-n2c(SCc3ccc(C(=O)NO)cc3)nc3ccccc3c2=O)cc1 [Compound 5c, N-hydroxy-4-(((4-oxo-3-(p-tolyl)-3,4-dihydroquinazolin-2-yl)thio)methyl)benzamide]
protein expression of cleaved PARP [2]: significantly higher | acetylation of H3 [3]: increase in acetylation of H3, but only at a higher concentration | concentration at which heightened acetylation of α-tubulin starts [5]: 0.1 to 1 µM | cell population in G2/M phase ([6]; MCF7, 0.1 μM, 48 h): significant increase | cell population in the G1 and S phases ([6]; MCF7, 0.1 μM, 48 h): slight reduction | effect on cells at 1 μM ([6]; MCF7, 1 μM): necrosis and cell death | IC50 [7]: 35.1 ± 18.7 µM | state of cells with increase in concentration [9]: late apoptosis and necrosis | apoptosis by acridine orange staining [11]: evidential apoptosis
